Test results as given in ChEMBL document CHEMBL4308873, “Synthesis and biological evaluation of Ginsenoside Compound K analogues as a novel class of anti-asthmatic agents” (2019).

Tests used:
Type in all cases: functional
[1] = tested on: Mus musculus; assay: (§1) Anti-asthmatic activity in ovalbumin-induced asthmatic BALB/c mouse model assessed as 6.25 mg/ml methacholine-induced airway resistance at 20 mg/kg, po co-administered with ovalbumin from day 21 to 28 of experiment period measured post last dose by plethysmography (reference value: 2.44 +/- 0.87 cmH2O/ml)
[2] = tested on: Mus musculus; assay: Anti-asthmatic activity in ovalbumin-induced asthmatic BALB/c mouse model assessed as IgE level in plasma at 20 mg/kg, po co-administered with ovalbumin from day 21 to 28 of experiment period by ELISA (reference value: 2544.05 +/- 229.07 ng/ml)
[3] = tested on: Mus musculus; assay: as §1, with “25” for “6.25”, “14.03” for “2.44”, “1.15” for “0.87”
[4] = tested on: Mus musculus; assay: as §1, with “50” for “6.25”, “64.33” for “2.44”, “3.41” for “0.87”
[5] = tested on: Mus musculus; assay: as §1, with “100” for “6.25”, “84.5” for “2.44”, “2.41” for “0.87”
[6] = tested on: Mus musculus; assay: as §1, with “12.5” for “6.25”, “6.03” for “2.44”, “1.02” for “0.87”
[7] = tested on: Mus musculus; assay: as §1, with “25” for “6.25”, “0.6” for “20”, “14.03” for “2.44”, “1.15” for “0.87”
[8] = tested on: Mus musculus; assay: as §1, with “100” for “6.25”, “0.6” for “20”, “84.5” for “2.44”, “2.41” for “0.87”
[9] = tested on: Mus musculus; assay: Anti-asthmatic activity in ovalbumin-induced asthmatic BALB/c mouse model assessed as IgE level in plasma at 0.6 mg/kg, po co-administered with ovalbumin from day 21 to 28 of experiment period by ELISA (reference value: 2544.05 +/- 229.07 ng/ml)
[10] = tested on: Mus musculus; assay: as §1, with “12.5” for “6.25”, “0.6” for “20”, “6.03” for “2.44”, “1.02” for “0.87”
[11] = tested on: Mus musculus; assay: as §1, with “0.6” for “20”
[12] = tested on: Mus musculus; assay: as §1, with “50” for “6.25”, “0.6” for “20”, “64.33” for “2.44”, “3.41” for “0.87”

| SMILES | Activity [1] | Activity [2] | Activity [3] | Activity [4] | Activity [5] | Activity [6] | further results |
| --- | --- | --- | --- | --- | --- | --- | --- |
| CC(C)=CCC[C@](C)(O[C@@H]1O[C@H](CO)[C@@H](O)[C@H](O)[C@H]1O)[C@H]1CC[C@]2(C)[C@@H]1[C@H](O)C[C@@H]1[C@@]3(C)CC[C@H](O)C(C)(C)[C@@H]3CC[C@]12C | 2.47 cmH2O/ml | 1501.85 ng/mL | 4.79 cmH2O/ml | 5.04 cmH2O/ml | 6.21 cmH2O/ml | 4.14 cmH2O/ml |  |
| CC(C)=CCC[C@](C)(O[C@H]1O[C@@H](C)[C@H](O)[C@@H](O)[C@H]1O)[C@H]1CC[C@]2(C)[C@@H]1C(=O)C[C@@H]1[C@@]3(C)CC[C@H](O)C(C)(C)[C@@H]3CC[C@]12C |  | 2706.85 ng/mL |  |  |  |  |  |
| CC(C)=CCC[C@](C)(O[C@@H]1O[C@H](CO)[C@H](O)[C@H](O)[C@H]1O)[C@H]1CC[C@]2(C)[C@@H]1C(=O)C[C@@H]1[C@@]3(C)CC[C@H](O)C(C)(C)[C@@H]3CC[C@]12C | 2.04 cmH2O/ml | 975.82 ng/mL | 3.28 cmH2O/ml | 4.81 cmH2O/ml | 6.35 cmH2O/ml | 2.78 cmH2O/ml |  |
| CC(C)=CCC[C@](C)(O[C@@H]1O[C@H](CO)[C@@H](O)[C@H](O)[C@H]1O)[C@H]1CC[C@]2(C)[C@@H]1/C(=N/O)C[C@@H]1[C@@]3(C)CC/C(=N\O)C(C)(C)[C@@H]3CC[C@]12C | 3.4 cmH2O/ml | 1258.27 ng/mL | 5.72 cmH2O/ml | 4.93 cmH2O/ml | 5.73 cmH2O/ml | 5.06 cmH2O/ml |  |
| CC(C)(O)CCC[C@](C)(O[C@@H]1O[C@H](CO)[C@@H](O)[C@H](O)[C@H]1O)[C@H]1CC[C@]2(C)[C@@H]1C(=O)C[C@@H]1[C@@]3(C)CC[C@H](O)C(C)(C)[C@@H]3CC[C@]12C |  | 2027.95 ng/mL |  |  |  |  |  |
| CO[C@H]1CC[C@]2(C)[C@H]3CC(=O)[C@@H]4[C@@H]([C@](C)(CCC=C(C)C)O[C@@H]5O[C@H](CO)[C@@H](O)[C@H](O)[C@H]5O)CC[C@@]4(C)[C@]3(C)CC[C@H]2C1(C)C |  | 3593.38 ng/mL |  |  |  |  |  |
| CC(C)=CCC[C@](C)(O[C@@H]1OC[C@@H](O)[C@H](O)[C@H]1O)[C@H]1CC[C@]2(C)[C@@H]1C(=O)C[C@@H]1[C@@]3(C)CC[C@H](O)C(C)(C)[C@@H]3CC[C@]12C |  | 2439.3 ng/mL |  |  |  |  |  |
| CC(=O)O[C@H]1CC[C@]2(C)[C@H]3CC(=O)[C@@H]4[C@@H]([C@](C)(CCC=C(C)C)O[C@@H]5O[C@H](CO)[C@@H](O)[C@H](O)[C@H]5O)CC[C@@]4(C)[C@]3(C)CC[C@H]2C1(C)C |  | 3224.5 ng/mL |  |  |  |  |  |
| CO/N=C1\CC[C@]2(C)[C@H]3CC(=O)[C@@H]4[C@@H]([C@](C)(CCC=C(C)C)O[C@@H]5O[C@H](CO)[C@@H](O)[C@H](O)[C@H]5O)CC[C@@]4(C)[C@]3(C)CC[C@H]2C1(C)C |  | 2023.54 ng/mL |  |  |  |  |  |
| CC(C)CCC[C@](C)(O[C@@H]1O[C@H](CO)[C@@H](O)[C@H](O)[C@H]1O)[C@H]1CC[C@]2(C)[C@@H]1C(=O)C[C@@H]1[C@@]3(C)CC[C@H](O)C(C)(C)[C@@H]3CC[C@]12C |  | 1976.31 ng/mL |  |  |  |  |  |
| CC(C)=CCC[C@](C)(O[C@@H]1O[C@H](CO)[C@@H](O)[C@H](O)[C@H]1O)[C@H]1CC[C@]2(C)[C@@H]1C(=O)C[C@@H]1[C@@]3(C)CCC(=O)C(C)(C)[C@@H]3CC[C@]12C |  | 2439.3 ng/mL |  |  |  |  |  |
| CC(C)=CCC[C@](C)(O[C@@H]1O[C@H](CO)[C@@H](O)[C@H](O)[C@H]1O)[C@H]1CC[C@]2(C)[C@@H]1C(=O)C[C@@H]1[C@@]3(C)CC/C(=N\O)C(C)(C)[C@@H]3CC[C@]12C |  | 1968.31 ng/mL |  |  |  |  |  |
| CC(C)=CCC[C@](C)(O[C@@H]1O[C@H](CO)[C@@H](O)[C@H](O)[C@@H]1O)[C@H]1CC[C@]2(C)[C@@H]1C(=O)C[C@@H]1[C@@]3(C)CC[C@H](O)C(C)(C)[C@@H]3CC[C@]12C | 2.83 cmH2O/ml | 1136.96 ng/mL | 3.58 cmH2O/ml | 4.94 cmH2O/ml | 5.97 cmH2O/ml | 3.54 cmH2O/ml |  |
| CC(C)=CCC[C@](C)(O[C@@H]1O[C@H](CO)[C@@H](O)[C@H](O)[C@H]1O)[C@H]1CC[C@]2(C)[C@@H]1C(=O)C[C@@H]1[C@@]3(C)CC=CC(C)(C)[C@@H]3CC[C@]12C | 2.86 cmH2O/ml | 1191.08 ng/mL | 4.89 cmH2O/ml | 5.61 cmH2O/ml | 5.76 cmH2O/ml | 3.24 cmH2O/ml |  |
| CC(C)=CCC[C@](C)(O[C@@H]1O[C@H](CO)[C@@H](O)[C@H](O)[C@H]1O)[C@H]1CC[C@]2(C)[C@@H]1C(=O)C[C@@H]1[C@@]3(C)CC[C@H](O)C(C)(C)[C@@H]3CC[C@]12C | 2.18 cmH2O/ml | 1237.11 ng/mL | 4.65 cmH2O/ml | 5.9 cmH2O/ml | 6.79 cmH2O/ml | 3.13 cmH2O/ml |  |
| CC(=O)OCC(=O)[C@@]1(O)[C@H](C)C[C@H]2[C@@H]3CCC4=CC(=O)C=C[C@]4(C)[C@@]3(F)[C@@H](O)C[C@@]21C [DEXAMETHASONE ACETATE] |  |  |  |  |  |  | Activity [7]: 3.36 cmH2O/ml; Activity [8]: 3.06 cmH2O/ml; Activity [9]: 1131.05 ng/mL; Activity [10]: 3.09 cmH2O/ml; Activity [11]: 2.89 cmH2O/ml; Activity [12]: 3.04 cmH2O/ml |
